Experimental data taken from patent US9555057B2, “Compositions and methods for reducing cutaneous microbiome malodor” (The Research Foundation for The State University of New York, priority 2014, dated 2017).
“Also recorded” adds a separate entry of the source.

Legend:
[1] = test system: C. striatum, Staph. epidermidis and a mixture of the two; assay: Growth (colony counts on BHI agar) during 72 hour incubation with CIL, phenylalanine, zinc carbonate with or without arginine bicarbonate; assay type: cell-based
Method: The bacterial sediments produced upon centrifugation and decantation of the supernatants were stirred and made into a uniform suspension. C. striatum and Staph. epidermidis were mixed with each of C. striatum and Staph. epidermidis at 25% (v/v).
Zinc carbonate was autoclaved and suspended in sterile distilled water. All other stock solutions were sterilized by microbial filtration (Nylon, Sterile filter, pore size […], Fisher Scientific, Fairlawn, N.J. USA).
Difco BHI agar was poured into petri dish plates under sterile conditions and pre-incubated at 37° C. for 24 hours before use to ensure sterility.
The experimental and negative control samples were prepared as follows:
The final concentrations of the bacteria, C. striatum and Staph. epidermidis were each 8.3% (v/v) and the mixture of C. striatum and Staph. epidermidis were 4.15% (v/v) each.
Serial dilution of each of the samples between 10^0 and 10^10 was made. An aliquot of 100 μl from each 10^0 to 10^10 dilution was inoculated onto BHI agar plates. […] Bacterial growth was regularly checked. This was the initial test before the incubation was started.
Four successive diluted samples were selected and grown to proper densities of bacterial colonies on the agar plates; for example, 10^4 to 10^7 were appropriate dilutions for all samples in the instant experiment. Incubation of all samples (experimental and control) were continued at 37° C. for 24, 48 or 72 hours; 100 μl of each sample were taken and chosen at 4 consequent dilutions and inoculated on BHI agar plates for incubation for 24, 48 and 72 hours, respectively. Plating on BHI agar plates and incubation at 37° C. for 24 to 48 hours were carried out and bacterial growth on the BHI agar plates were checked.
The number of bacterial colonies on each plate was assessed. The plates inoculated with the mixture of C. striatum and Staph. epidermidis (i.e., Samples I and IV in the Table of Media compositions above) were counted and the number of colonies of C. striatum and Staph. epidermidis were determined from the photos of the plates.

[2] = test system: C. striatum, Staph. epidermidis or a 1:1 mixture thereof; conditions: for Sulfurous odor and Eh: zinc acetate, CIL and either arginine or arginine bicarbonate, no phenylalanine
Source text: The pH of the medium with each of the different zinc salts needed some adjustment, which was done with 1 M HCl or 1 M NaOH depending upon the pH of the stock solutions of each zinc salt employed.

[3] = test system: mixture of C. striatum and Staph. epidermidis in the ratio of 1 to 1; assay: Zinc carbonate / arginine bicarbonate on odor and pH, CIL and phenylalanine medium; assay type: cell-based; conditions: for pH after incubation: arginine bicarbonate with zinc carbonate
[4] = test system: Staph. epidermidis (ATCC 12228); assay: Kirby-Bauer disk diffusion susceptibility test; assay type: cell-based, Staphylococcus epidermidis
Source text: (§1) C. striatum and Staph. epidermidis are among the most prevalent bacteria that comprise the human cutaneous microbiota. […] The purpose of this segment was to examine whether formulations arising out of the studies reported in the prior sections that favor the growth and metabolism of Staph. epidermidis as a desirable skin entity that can inhibit the growth of C. striatum, a less desirable entity, and do so when both microorganisms are present initially at the same levels. In this regard, an adaptation of the Kirby-Bauer disk diffusion susceptibility test appeared to be relevant for such determination.
(§2) Here we have grown less than desirable C. striatum and highly desirable Staph. epidermidis, alone and in combination, under a variety of substrate conditions to determine, if the latter micro-organism could be selected over C. striatum and thereby be used as a means of reducing the presence of less desirable odor-producing C. striatum.
(§3) Compositions indicated as possible suppressants of C. striatum and/or enhancers of Staph. epidermidis were based on the prior studies above and for convenience of presentation were categorized as possible active test ingredients and then formulae and mixtures in which they were tested. Accordingly, the total number of compositions tested was eight. Careful attention was paid to sterility throughout in the preparation and handling of the compounds and compositions utilized herein.
(§4) Each of these formulae were prepared at 4 different concentrations: original as in (b), and 1.5, 2.5 and 7.5 times the original concentration. Again, all formulae were prepared under aseptic conditions.
To make compositions 1.5 times the original concentration listed above, formulae 7.5 times the original concentrations were diluted a factor of 5 with sterile distilled water. […]
Each strain was determined as resistant, intermediate, or susceptible to the ingredients, formulae and mixtures tested. After 24 hours of incubation at 37° C., the diameter of the zone of growth inhibition around each disk was measured to the nearest whole mm. […]

C. striatum (ATCC 43751) = assay: Kirby-Bauer disk diffusion susceptibility test; assay type: cell-based, Corynebacterium striatum; conditions: for Intensity of inhibition of the growth of C. striatum (CS): Blood BHI agar plate, 37° C., 24 hours
Source text: as §1, §2, §3, §4
To make compositions 1.5 times the original concentration listed above, formulae 7.5 times the original concentrations were diluted a factor of 5 with sterile distilled water. To make compositions 2.5 times the original concentration listed above, formulae 7.5 times the original concentrations were diluted three-fold with sterile distilled water. To summarize: a total of 3 ingredients, 2 formulae and 2 mixtures were tested. A total of 20 disks were prepared for tests of susceptibility to each bacterial sample and these are outlined in Table 5.2 below:
A TB syringe with a 25-27 G sterile needle was used to help break up the remains of any pellets. […] Plating Procedures • Five bacterial samples of C. striatum and Staph. epidermidis were plated on Blood BHI agar and CHROMagar plates, respectively. • 100 μl of each bacterial sample was inoculated on Blood BHI agar plates by using sterile glass bars and a turning table to facilitate each bacterial sample being spread evenly on each of the agar plates. • Each spread bacterial suspension was allowed to dry on inoculated plates for five minutes. • Paper disks were immersed, respectively, with the above 3 ingredients, 2 formulae and 2 mixtures; absorptions were saturated. • Four disks were placed on each plate with sterile forceps. • Incubated plates within 15 minutes after applying the disks to ensure test was under standardized conditions, where diffusion of the ingredients and formulae and bacterial growth commence at approximately the same time. Plates were incubated at 37° C. for 24 hours. Interpretation of Results
Each strain was determined as resistant, intermediate, or susceptible to the ingredients, formulae and mixtures tested. After 24 hours of incubation at 37° C., the diameter of the zone of growth inhibition around each disk was measured to the nearest whole mm. Plates were carefully examined for well-developed colonies within the zone of inhibition.

[5] = test system: pure cultures of microorganisms resident on human axillary skin; conditions: for Odor released on catabolism: bacteria that catabolized the substrate
Method: Pure cultures of the numerically most prominent microorganisms normally resident on human axillary skin (see Table 1) were surveyed for their effects on (i) pH, (ii) Eh, (iii) ability to generate malodor and (iv) ability to generate hydrogen peroxide. Four hour incubation experiments were conducted, in which each of a wide range of carbohydrate and amino acid substrates (see Table 1) were surveyed for malodor production and related changes in pH and Eh thereto.
Each microorganism was recovered from its frozen state at −70° C. and grown at 37° C. in 10 ml of appropriate and respective culture media for a period between 24 and 48 hours (see Table 1). Incubations were carried out to middle and late exponential stages of bacterial growth under the incubation conditions indicated in Table 1. A 1.5 ml inoculum was transferred therefrom to polypropylene bottles containing 150 ml of the initial growth medium. This was then incubated at 37° C. for 24 to 48 hours. Bacteria were harvested by centrifugation (DuPone, Sorvall, Newtown, Conn.) at 10,000 g and 4° C. for 20 min. […] The sediment was then washed with sterile distilled water to remove residual growth medium. This was done by centrifuging the bacterial sediment three times at 1,740 g for 15 min at 4° C.
Each pure culture was pre-incubated at 37° C. at pH 7.0 to exhaust or reduce any stored carbohydrate and other carbon/energy sources acquired during growth in culture.
Both of these electrodes were connected to a second pH meter (pH M26 Radiometer Copenhagen NV, Denmark) and used here as a millivoltmeter. For the Eh measurements, when the Eh electrode was immersed in an incubation mixture, each Eh reading was recorded after allowing several seconds for each reading to stabilize. The Eh value was related to that of the hydrogen electrode by adding to each reading the difference between the E0 value for the Red Rod reference element-mercury and hydrogen electrodes—i.e. 270 my at 25° C.
At each time point, the odor was determined organoleptically by immersing a solid glass rod into each incubation mixture, stirring gently 3 times and then removing and carefully smelling the rod after 5 seconds. The intensity of the odor was assessed on a 0 to 4 numerical scale (0—no odor, 1—mild odor, 2—moderate odor, 3—strong odor, and 4—very strong odor).

[6] = zinc compound alone, levels tested (1%, 3%, 5%)
[7] = 3% and 5%, Blood BHI agar plates
[8] = concentration 5%, paper disk 12.7 mm

N=C(N)NCCC[C@H](N)C(=O)O.O=C(O)O [Arginine bicarbonate, arginine bicarbonate]
Decrease of number of colonies ([1]; 12 mM zinc carbonate, CIL, phenylalanine, with versus without 12 mM arginine bicarbonate, 37° C., 72 hours): without arginine bicarbonate decreased sooner | Colonies found in the mixture ([1]; media with arginine bicarbonate, 48 and 72 hours): Only colonies of Staph. epidermidis were discovered | Staph. epidermidis share of colonies in the mixture ([1]; media with arginine bicarbonate, 24 hours, 65% at 0 hours): 90% | Sulfurous odor and Eh ([2]; pH 4.0 to 8.0, 4 hours): No sulfurous odor nor corresponding decrease in the Eh | pH maintained ([3]; 12.0 mM arginine bicarbonate, CIL and phenylalanine, 37° C., 4 hours): about 8.0 | pH after incubation ([3]; medium originally at pH 6.0): 6.8 | pH after incubation ([3]; medium originally at pH 7.0): 7.8 | pH after incubation ([3]; medium originally at pH 8.0): 8.0 | Sensitivity of Staph. epidermidis (in words) ([4]; at either 1% or 5%): neither C. striatum nor Staph. epidermidis was susceptible | Sensitivity of C. striatum (in words) (C. striatum (ATCC 43751); at either 1% or 5% levels): neither C. striatum nor Staph. epidermidis was susceptible

CC(=O)[O-].CC(=O)[O-].[Zn+2] [Zinc acetate]
Sulfurous odor and Eh ([2]; pH 4.0 to 8.0, 4 hours): No sulfurous odor nor corresponding decrease in the Eh

NCC(=O)[O-].NCC(=O)[O-].[Zn+2] [Zinc glycinate, zinc glycinate]
Sensitivity of Staph. epidermidis (in words) [4, 6]: not sensitive | Sensitivity of C. striatum (in words) (C. striatum (ATCC 43751); 1%, Blood BHI agar): not sensitive | Sensitivity of C. striatum (in words) (C. striatum (ATCC 43751); [7]): viability loss; also recorded: sensitive | Diameter of the zone of growth inhibition, C. striatum (C. striatum (ATCC 43751); concentration 3%): 14 mm | Partial or complete inhibition, C. striatum (C. striatum (ATCC 43751); concentration 3%): (p) | Intensity of inhibition of the growth of C. striatum (CS) (C. striatum (ATCC 43751); concentration 3%): + ((+) the diameter of inhibition <15 mm) | Partial or complete inhibition, C. striatum (C. striatum (ATCC 43751); concentration 5%): (p) | Intensity of inhibition of the growth of C. striatum (CS) (C. striatum (ATCC 43751); concentration 5%): ++ ((++) the diameter of inhibition 15-20 mm) | Diameter of the zone of growth inhibition, C. striatum (C. striatum (ATCC 43751); [8]): 17 mm

N[C@@H](CS)C(=O)O [cysteine]
Odor released on catabolism ([5]; 6.0 mM): sulfurous odor

N[C@@H](CSSC[C@H](N)C(=O)O)C(=O)O [cystine]
Odor released on catabolism ([5]; 6.0 mM): sulfurous odor

CC(C)C[C@H](N)C(=O)O [leucine]
Foot-web odor score ([5]; 6.0 mM, Staph. saprophyticus, Staph. hominis, Staph. haemolyticus and C. minutissium, 0 to 4 scale): 2

CSCC[C@H](N)C(=O)O [methionine]
Methyl mercaptan-like odor level ([5]; 6.0 mM, Staph. epidermidis, Staph. saprophyticus, C. jeikeium, C. minutissium, Brevibacterium epidermidis, P. avidum, P. acne, M. furfur): mild to moderate

N[C@@H](Cc1ccccc1)C(=O)O [phenylalanine]
Pleasant odor ([3]; medium with zinc carbonate, CIL and phenylalanine, between pH 5.0 and 8.0, 4 hours): pleasant odor developed | Pleasant odor ([3]; phenylalanine added to zinc acetate, CIL, arginine or arginine bicarbonate media, pH 6.5 and 7.0, 4 hour): pleasant odor appeared | Odor produced on catabolism (in words) ([5]; 6.0 mM, C. striatum, Staph. saprophyticus or Staph. hominis): pleasant odor

OC[C@H]1O[C@@](CO)(O[C@H]2O[C@H](CO)[C@@H](O)[C@H](O)[C@H]2O)[C@@H](O)[C@@H]1O [sucrose]
pH response, lowest pH reached ([5]; 28 mM carbohydrate, start pH 7.0, 37° C., 4 hours, across the bacteria tested): 4.2

N[C@@H](Cc1c[nH]c2ccccc12)C(=O)O [tryptophan]
Indole/skatole odor level ([5]; 6.0 mM, M. luteus and P. acne, 0 to 4 scale): 2

Zinc arginate
Foot odor smell ([2]; 12 mM zinc arginate, CIL and phenylalanine, pH 4.0 or 5.0, 4 hours): mild | Eh ([2]; 12 mM zinc arginate, CIL and phenylalanine, pH 4.0 to 8.0, 4 hours): decreased significantly | Sulfurous odor ([2]; 12 mM zinc arginate, CIL and phenylalanine, pH 4.0 to 8.0, 4 hours, versus control groups): blocked completely | Foot odor generation ([2]; 12 mM zinc arginate, CIL and phenylalanine, pH 6.0 or above): disappeared | Favorable odor ([2]; C. striatum or the mixture, zinc arginate, CIL and phenylalanine, pH 5.0 to 8.0, 4 hours): evident | Pleasant flower odor ([2]; Staph. epidermidis alone, zinc arginate, CIL and phenylalanine, 4 hours): not detected

basic zinc carbonate (ZnCO3. 3 Zn(OH)2)
Sulfurous odor ([3]; medium with zinc carbonate, CIL and phenylalanine, pH 4.0 to 8.0, 4 hours): no sulfurous odor was observed | Sensitivity of Staph. epidermidis (in words) [4, 6]: not sensitive | Sensitivity of C. striatum (in words) (C. striatum (ATCC 43751); 1%, Blood BHI agar): not sensitive | Sensitivity of C. striatum (in words) (C. striatum (ATCC 43751); [7]): viability loss; also recorded: sensitive | Partial or complete inhibition, C. striatum (C. striatum (ATCC 43751); concentration 1%): (p) | Intensity of inhibition of the growth of C. striatum (CS) (C. striatum (ATCC 43751); concentration 1%): ± | Diameter of the zone of growth inhibition, C. striatum (C. striatum (ATCC 43751); concentration 3%): 14 mm | Partial or complete inhibition, C. striatum (C. striatum (ATCC 43751); concentration 3%): (p) | Intensity of inhibition of the growth of C. striatum (CS) (C. striatum (ATCC 43751); concentration 3%): + ((+) the diameter of inhibition <15 mm) | Partial or complete inhibition, C. striatum (C. striatum (ATCC 43751); concentration 5%): (p) | Intensity of inhibition of the growth of C. striatum (CS) (C. striatum (ATCC 43751); concentration 5%): ++ ((++) the diameter of inhibition 15-20 mm) | Diameter of the zone of growth inhibition, C. striatum (C. striatum (ATCC 43751); [8]): 15 mm
